{
  "source": "patent US12123009B2",
  "about": "“Methods and compositions for PPO herbicide tolerance in plants” (Monsanto Technology LLC, priority 2015, dated 2024)",
  "molecules": {"B1": {"name": "H_N90: microbial HemG protoporphyrinogen oxidase, SEQ ID NO:1 (SEQ ID NO:11 lacking start methionine; variants 18, 19) (protein, listed as Enterobacter cloacae)", "chain": "MKALVLYSTRDGQTHAIASYIASCMKEKAECDVIDLTHGEHVNLTQYDQVLIGASIRYGHFNAVLDKFIKRNVDQLNNMPSAFFCVNLTARKPEKRTPQTNPYVRKFLLATPWQPALCGVFAGALRYPRYRWIDKVMIQLIMRMTGGETDTSKEVEYTDWEQVKKFAEDFAKLSYKKAL"}},
  "key": {"[1]": {"biological_target": "Soybean (Glycine max) protoporphyrinogen oxidase (PPO), wild type", "assay": "PPO enzyme assay (plastid extract)", "assay_type": "biochemical", "conditions": "3 μM protogen; pH 7.4, 30° C.; read-out: S-3100 IC50"}, "[2]": {"tested_on": "maize (LH244), non-transgenic or expressing H_N10 (SEQ ID NO:4)", "assay": "Transgenic Maize Herbicide Tolerance I (R0 plants sprayed)", "assay_type": "in vivo", "conditions": "7 days", "description": "The plant transformation constructs were annotated construct 1, 6, 11, and 16. For maize in planta testing, immature maize (LH244) embryos were transformed with using Agrobacterium tumefaciens and standard methods known in the art.\nLeaf samples were collected from R0 plants and screened by PCR to determine the number of copies of the transgene inserted into the plant genome. The plants containing a single copy (single copy) were selfed and outcrossed to generate R1 and F1 seed for future testing, respectively. Plants containing multiple copies (multi-copy) were sprayed as follows: (1) 5 g/ha S-3100 at approximately the V5 growth stage followed by 10 g/ha S-3100 at approximately the V7 growth stage, for a total application of 15 g/ha S-3100 or (2) 10 g/ha S-3100 at approximately the V5 growth stage. The average percentage of injury, on a scale of 0-100 with zero being no injury and 100 being complete crop death, was assessed 7 days after the final treatment for each batch."}, "[3]": {"tested_on": "transgenic maize expressing HemG PPO enzymes", "assay": "Transgenic Maize Herbicide Tolerance II (R0 plants sprayed)", "assay_type": "in vivo", "conditions": "40 grams/ha; for Average Injury: V5, 7 days", "description": "(§1) H_N60 (SEQ ID NO:3). […] These five constructs had the same promoter plus leader plus intron combination, with two different targeting peptide (TP) sequences, and the same 3′UTR sequence. Leaf samples were taken from the R0 plants and analyzed by PCR to determine the transgene copy number. Single copy plants for up to 12 unique events per construct were transplanted to pots, selfed and outcrossed to generate R1 and F1 seed, respectively, for future testing. Multi-copy plants and extra single copy plants were sprayed with 40 grams/ha 5-3100 at approximately the V5 growth stage and injury ratings were taken 7 days after treatment. The average percent (%) injury for all plants expressing each PPO enzyme and the number of plants that were deemed highly tolerant (less than 10% injury) was noted, where each plant is a unique single or multi-copy transformant."}, "[4]": {"tested_on": "soybean (A3555), non-transgenic or expressing H_N10 (SEQ ID NO: 4)", "assay": "R0 soybean sprayed with S-3100", "assay_type": "in vivo", "conditions": "5 g/ha, V3, 8 days", "description": "In soybean, excised embryos (A3555) were transformed with the transformation constructs 1 and 11 using A. tumefaciens and standard methods known in the art. […] Regenerated R0 transgenic plantlets were grown in the greenhouse. […] The herbicide was sprayed at the V3 developmental stage with three fully developed trifoliate leaves and injury ratings were assessed 8 days after treatment. The percentage of plants that were deemed highly tolerant (15% or less injury) was noted.\nThe herbicide was sprayed at the V3 developmental stage with three fully developed trifoliate leaves and injury ratings taken 8 days after treatment. The percentage of plants that were deemed highly tolerant (25% or less injury) was noted."}, "[5]": {"tested_on": "soybean, non-transgenic or expressing H_N10 (SEQ ID NO: 4)", "assay": "Green house S-3100 efficacy screen of R1 soybean", "assay_type": "in vivo", "description": "Single-copy transgenic R1 soybean plants in the greenhouse were sprayed with one of three herbicide application rates: Treatment 1 was 5 grams ai/ha S-3100 applied at V4 followed by (fb) R1; Treatment 2 was 10 grams ai/ha S-3100 applied at V4 fb R1; Treatment 3 was 30 grams ai/ha S-3100 applied at V4 fb R1. Crop Injury Percent at V2 (CIPV2) ratings were assessed ten days after treatment. Non-transgenic plants had average injury ratings of 89% to 100% and were not available for rating at the R1 growth stage."}, "[6]": {"biological_target": "H_N60 (SEQ ID NO: 3), microbial HemG protoporphyrinogen oxidase", "assay": "PPO enzyme assay (bacterial extract)", "conditions": "read-out: S-3100 IC50; 3 μM protogen; pH 7.4, 37° C."}, "transgenic maize plants": {"tested_on": "transgenic maize plants", "assay": "R0 transgenic maize 40 g/ha S-3100 spray test", "assay_type": "in vivo", "description": "as §1"}, "[7]": {"conditions": "H_N10 (SEQ ID NO: 4), construct 11"}, "[8]": {"conditions": "40 grams/ha S-3100 at V5, 7 days after treatment, R0 plants"}},
  "data": [
    {"molecule": "CCOC(=O)COc1ncccc1Oc1cc(-n2c(=O)cc(C(F)(F)F)n(C)c2=O)c(F)cc1Cl", "note": "[S-3100, ethyl [3-2-chloro-4-fluoro-5-(1-methyl-6-trifluoromethyl-2,4-dioxo-1,2,3,4-tetrahydropyrimidin-3-yl)phenoxy]-2-pyridyloxylacetate]", "values": [
      {"measurement": "IC50", "setting": "[1]", "value": 4, "unit": "nM"},
      {"measurement": "Average Injury", "setting": "[2]; H_N10, construct 6, Treatment 1: 5 g/ha V5 then 10 g/ha V7 (15 g/ha total)", "value": 28.9, "unit": "%"},
      {"measurement": "Average Injury", "setting": "[2]; H_N10, construct 16, Treatment 2: 10 g/ha V5", "value": 24.2, "unit": "%"},
      {"measurement": "Average Injury", "setting": "[2]; nontransgenic, Treatment 1: 5 g/ha V5 then 10 g/ha V7 (15 g/ha total)", "value": 43.3, "unit": "%"},
      {"measurement": "Average Injury", "setting": "[2]; nontransgenic, Treatment 2: 10 g/ha V5", "value": 26.7, "unit": "%"},
      {"measurement": "Average Injury", "setting": "[3]; H_N10 (SEQ ID NO 4), construct 6", "value": 39.5, "unit": "%"},
      {"measurement": "Highly Tolerant (less than 10% injury)", "setting": "[3]; H_N10 (SEQ ID NO 4), construct 6, of 139 plants", "value": 31, "unit": "plants"},
      {"measurement": "Average Injury", "setting": "[3]; H_N40 (SEQ ID NO 6), construct 23", "value": 47.0, "unit": "%"},
      {"measurement": "Highly Tolerant (less than 10% injury)", "setting": "[3]; H_N40 (SEQ ID NO 6), construct 23, of 98 plants", "value": 53, "unit": "plants"},
      {"measurement": "Average Injury", "setting": "[3]; H_N60 (SEQ ID NO 3), construct 20", "value": 55.8, "unit": "%"},
      {"measurement": "Highly Tolerant (less than 10% injury)", "setting": "[3]; H_N60 (SEQ ID NO 3), construct 20, of 86 plants", "value": 19, "unit": "plants"},
      {"measurement": "Average Injury", "setting": "[3]; H_N90 (SEQ ID NO 1), construct 21", "value": 31.4, "unit": "%"},
      {"measurement": "Highly Tolerant (less than 10% injury)", "setting": "[3]; H_N90 (SEQ ID NO 1), construct 21, of 99 plants", "value": 44, "unit": "plants"},
      {"measurement": "Average Injury", "setting": "[3]; H_N110 (SEQ ID NO 10), construct 22", "value": 43.0, "unit": "%"},
      {"measurement": "Highly Tolerant (less than 10% injury)", "setting": "[3]; H_N110 (SEQ ID NO 10), construct 22, of 94 plants", "value": 0, "unit": "plants"},
      {"measurement": "average injury rating", "setting": "[4]; [7]", "value": 47, "unit": "%"},
      {"measurement": "highly tolerant plants (25% or less injury)", "setting": "[4]; [7]", "value": 30, "unit": "%"},
      {"measurement": "average injury rating", "setting": "[4]; non-transgenic", "value": 60, "unit": "%"},
      {"measurement": "highly tolerant plants (25% or less injury)", "setting": "[4]; non-transgenic", "value": "no highly tolerant plants"},
      {"measurement": "% Injury R1 stage", "setting": "[5]; H_N10, construct 1, 5 g/ha", "value": 3, "unit": "%"},
      {"measurement": "% Injury V4 stage", "setting": "[5]; H_N10, construct 1, 5 g/ha", "value": 4.2, "unit": "%"},
      {"measurement": "% Injury R1 stage", "setting": "[5]; H_N10, construct 1, 10 g/ha", "value": 6.5, "unit": "%"},
      {"measurement": "% Injury V4 stage", "setting": "[5]; H_N10, construct 1, 10 g/ha", "value": 7.8, "unit": "%"},
      {"measurement": "% Injury R1 stage", "setting": "[5]; H_N10, construct 1, 30 g/ha", "value": 15.7, "unit": "%"},
      {"measurement": "% Injury V4 stage", "setting": "[5]; H_N10, construct 1, 30 g/ha", "value": 9.4, "unit": "%"},
      {"measurement": "% Injury V4 stage", "setting": "[5]; Nontransgenic, 5 g/ha", "value": 89, "unit": "%"},
      {"measurement": "% Injury V4 stage", "setting": "[5]; Nontransgenic, 10 g/ha", "value": 98, "unit": "%"},
      {"measurement": "% Injury V4 stage", "setting": "[5]; Nontransgenic, 30 g/ha", "value": 100, "unit": "%"},
      {"measurement": "IC50", "setting": "[6]", "value": "> 100000", "unit": "nM"}
    ]},
    {"molecule": "B1", "values": [
      {"measurement": "Average Injury", "setting": "transgenic maize plants; [8]", "value": 31.4, "unit": "%"},
      {"measurement": "Highly Tolerant (number of plants with less than 10% injury)", "setting": "transgenic maize plants; [8]", "value": 44},
      {"measurement": "injury rates when expressed in transgenic plants (crop tolerance to a PPO herbicide)", "setting": "transgenic maize plants; R0 transgenic maize data", "value": "reduced injury rates"}
    ]}
  ]
}
